In US10683334B2 (INDIANA UNIVERSITY RESEARCH AND TECHNOLOGY CORPORATION, priority 2016, dated 2020):
Square brackets hold non-standard residues; d marks the D form. Peptide text beside a SMILES is read from it. 3Pal = N[C@@H](Cc1cccnc1)C(=O)O; Aib = CC(C)(N)C(=O)O

Tests used:
physchem = settings: for solubility at 1 h: pH 7.4
Protocol: 1 or 5 mg of pre-lyophilized peptide in 2 mL Eppendorf tube was treated with 200-400 uL of phosphate buffer (PBS: 50 mM sodium phosphate, 150 mM of sodium chloride, pH7.4). Samples were then vortexed and sonicated for 10 min then equilibrated at RT for 1H, and then centrifuged at 10 krpms for 10 min Concentration of the peptides in obtained supernatant was determined by measuring UV absorbance at λ=280 nm. […] Concentration in aliquots was reassessed as previously with UV absorbance. Change in peptide concentration was evaluated after 48 h and 7 days of storage at 4° C.

glucagon receptor = glucagon receptor (Homo sapiens, UniProt P47871); experiment: Luciferase-based glucagon assay (cAMP reporter, HEK293 cells); settings: for EC50: read-out: EC50 [nM] (SDV), SDV in brackets; for EC50 / in vitro efficacy / potency (in words): luciferase-based glucagon assay; for % bioactivity of GCG: relative to native glucagon
Chain of glucagon receptor (P47871 26-477): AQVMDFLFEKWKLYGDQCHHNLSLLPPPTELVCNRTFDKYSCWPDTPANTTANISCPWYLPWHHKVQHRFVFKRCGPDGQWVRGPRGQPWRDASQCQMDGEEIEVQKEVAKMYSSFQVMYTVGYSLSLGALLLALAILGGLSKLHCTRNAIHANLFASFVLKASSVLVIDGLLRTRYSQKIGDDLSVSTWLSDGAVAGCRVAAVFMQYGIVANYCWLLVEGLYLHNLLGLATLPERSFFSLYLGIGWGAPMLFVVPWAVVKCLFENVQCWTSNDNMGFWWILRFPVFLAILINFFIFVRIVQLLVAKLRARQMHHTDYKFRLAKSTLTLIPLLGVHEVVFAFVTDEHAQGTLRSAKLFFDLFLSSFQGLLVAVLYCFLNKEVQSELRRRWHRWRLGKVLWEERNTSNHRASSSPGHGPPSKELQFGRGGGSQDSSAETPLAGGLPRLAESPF
Protocol: At the end of the incubation 100 microliters of LucLite luminescence substrate reagent (Perkin-Elmer, Wellesley, Mass.) were added to each well. […] The luminescent light output indicates activation of the luciferase reporter gene, which in turn is a measure of the activation of the receptor.

Compound | solubility at 1 h (physchem) [µg/mL] | EC50 (glucagon receptor) [nM] | % bioactivity of GCG (glucagon receptor) [%] | solubility (physchem; pH 7) [µg/mL] | in vitro efficacy / potency (in words) (glucagon receptor)
CSCC[C@H](NC(=O)[C@H](CC(C)C)NC(=O)[C@H](Cc1c[nH]c2ccccc12)NC(=O)[C@H](CCC(N)=O)NC(=O)[C@@H](NC(=O)[C@H](Cc1ccccc1)NC(=O)[C@H](CC(=O)O)NC(=O)[C@H](CCC(N)=O)NC(=O)[C@H](C)NC(=O)[C@H](CCCNC(=N)N)NC(=O)[C@H](CCCNC(=N)N)NC(=O)C(C)(C)NC(=O)[C@H](CC(=O)O)NC(=O)[C@H](CC(C)C)NC(=O)[C@H](Cc1ccc(O)cc1)NC(=O)[C@H](CCCCN)NC(=O)[C@H](CO)NC(=O)[C@H](Cc1ccc(O)cc1)NC(=O)[C@H](CC(=O)O)NC(=O)[C@H](CO)NC(=O)[C@@H](NC(=O)[C@H](Cc1cccnc1)NC(=O)[C@@H](NC(=O)CNC(=O)[C@H](CCC(N)=O)NC(=O)[C@H](CO)NC(=O)[C@@H](N)Cc1c[nH]cn1)[C@@H](C)O)[C@@H](C)O)C(C)C)C(=O)N[C@@H](CC(N)=O)C(=O)N[C@H](C(=O)O)[C@@H](C)O [Compound 3, HSQGTXTSDYSKYLDZRRAQDFVQWLMNT] | > 1000 | 0.017 | 119 | – | –
CSCC[C@H](NC(=O)[C@H](CC(C)C)NC(=O)[C@H](Cc1c[nH]c2ccccc12)NC(=O)[C@H](CCC(N)=O)NC(=O)[C@@H](NC(=O)[C@H](Cc1ccccc1)NC(=O)[C@H](CC(=O)O)NC(=O)[C@H](CCC(N)=O)NC(=O)[C@H](C)NC(=O)[C@H](CCCNC(=N)N)NC(=O)[C@H](CCCNC(=N)N)NC(=O)C(C)(C)NC(=O)[C@H](CC(=O)O)NC(=O)[C@H](CC(C)C)NC(=O)[C@H](Cc1ccc(O)cc1)NC(=O)[C@H](CCCCN)NC(=O)[C@H](CO)NC(=O)[C@H](Cc1cccnc1)NC(=O)[C@H](CC(=O)O)NC(=O)[C@H](CO)NC(=O)[C@@H](NC(=O)[C@H](Cc1ccccc1)NC(=O)[C@@H](NC(=O)CNC(=O)[C@H](CCC(N)=O)NC(=O)[C@H](CO)NC(=O)[C@@H](N)Cc1c[nH]cn1)[C@@H](C)O)[C@@H](C)O)C(C)C)C(=O)N[C@@H](CC(N)=O)C(=O)N[C@H](C(=O)O)[C@@H](C)O [Compound 4, HSQGTFTSDXSKYLDZRRAQDFVQWLMNT] | > 1000 | 0.0268 | 76 | – | –
CSCC[C@H](NC(=O)[C@H](CC(C)C)NC(=O)[C@H](Cc1c[nH]c2ccccc12)NC(=O)[C@H](CCC(N)=O)NC(=O)[C@@H](NC(=O)[C@H](Cc1ccccc1)NC(=O)[C@H](CC(=O)O)NC(=O)[C@H](CCC(N)=O)NC(=O)[C@H](C)NC(=O)[C@H](CCCNC(=N)N)NC(=O)[C@H](CCCNC(=N)N)NC(=O)C(C)(C)NC(=O)[C@H](CC(=O)O)NC(=O)[C@H](CC(C)C)NC(=O)[C@H](Cc1cccnc1)NC(=O)[C@H](CCCCN)NC(=O)[C@H](CO)NC(=O)[C@H](Cc1ccc(O)cc1)NC(=O)[C@H](CC(=O)O)NC(=O)[C@H](CO)NC(=O)[C@@H](NC(=O)[C@H](Cc1ccccc1)NC(=O)[C@@H](NC(=O)CNC(=O)[C@H](CCC(N)=O)NC(=O)[C@H](CO)NC(=O)[C@@H](N)Cc1c[nH]cn1)[C@@H](C)O)[C@@H](C)O)C(C)C)C(=O)N[C@@H](CC(N)=O)C(=O)N[C@H](C(=O)O)[C@@H](C)O [Compound 5, HSQGTFTSDYSKXLDZRRAQDFVQWLMNT] | > 1000 | 0.0379 | 54 | – | –
CSCC[C@H](NC(=O)[C@H](CC(C)C)NC(=O)[C@H](Cc1c[nH]c2ccccc12)NC(=O)[C@H](CCC(N)=O)NC(=O)[C@@H](NC(=O)[C@H](Cc1ccccc1)NC(=O)[C@H](CC(=O)O)NC(=O)[C@H](CCC(N)=O)NC(=O)[C@H](C)NC(=O)[C@H](CCCNC(=N)N)NC(=O)[C@H](CCCNC(=N)N)NC(=O)C(C)(C)NC(=O)[C@H](CC(=O)O)NC(=O)[C@H](CC(C)C)NC(=O)[C@H](Cc1ccncc1)NC(=O)[C@H](CCCCN)NC(=O)[C@H](CO)NC(=O)[C@H](Cc1ccc(O)cc1)NC(=O)[C@H](CC(=O)O)NC(=O)[C@H](CO)NC(=O)[C@@H](NC(=O)[C@H](Cc1ccccc1)NC(=O)[C@@H](NC(=O)CNC(=O)[C@H](CCC(N)=O)NC(=O)[C@H](CO)NC(=O)[C@@H](N)Cc1c[nH]cn1)[C@@H](C)O)[C@@H](C)O)C(C)C)C(=O)N[C@@H](CC(N)=O)C(=O)N[C@H](C(=O)O)[C@@H](C)O [Compound 6, HSQGTFTSDYSKULDZRRAQDFVQWLMNT] | > 1000 | 0.0339 | 60 | – | –
CSCC[C@H](NC(=O)[C@H](CC(C)C)NC(=O)[C@H](Cc1c[nH]c2ccccc12)NC(=O)[C@H](CCC(N)=O)NC(=O)[C@@H](NC(=O)[C@H](Cc1ccccc1)NC(=O)[C@H](CC(=O)O)NC(=O)[C@H](CCC(N)=O)NC(=O)[C@H](C)NC(=O)[C@H](CCCNC(=N)N)NC(=O)[C@H](CCCNC(=N)N)NC(=O)C(C)(C)NC(=O)[C@H](CC(=O)O)NC(=O)[C@H](CC(C)C)NC(=O)[C@H](Cc1cccnc1)NC(=O)[C@H](CCCCN)NC(=O)[C@H](CO)NC(=O)[C@H](Cc1cccnc1)NC(=O)[C@H](CC(=O)O)NC(=O)[C@H](CO)NC(=O)[C@@H](NC(=O)[C@H](Cc1ccccc1)NC(=O)[C@@H](NC(=O)CNC(=O)[C@H](CCC(N)=O)NC(=O)[C@H](CO)NC(=O)[C@@H](N)Cc1c[nH]cn1)[C@@H](C)O)[C@@H](C)O)C(C)C)C(=O)N[C@@H](CC(N)=O)C(=O)N[C@H](C(=O)O)[C@@H](C)O [Compound 7, HSQGTFTSDXSKXLDZRRAQDFVQWLMNT] | > 10000 | 0.0359 | 57 | > 10000 | fully potent
CSCC[C@H](NC(=O)[C@H](CC(C)C)NC(=O)[C@H](Cc1c[nH]c2ccccc12)NC(=O)[C@H](CCC(N)=O)NC(=O)[C@@H](NC(=O)[C@H](Cc1ccccc1)NC(=O)[C@H](CC(=O)O)NC(=O)[C@H](CCC(N)=O)NC(=O)[C@H](C)NC(=O)[C@H](CCCNC(=N)N)NC(=O)[C@H](CCCNC(=N)N)NC(=O)C(C)(C)NC(=O)[C@H](CC(=O)O)NC(=O)[C@H](CC(C)C)NC(=O)[C@H](Cc1ccncc1)NC(=O)[C@H](CCCCN)NC(=O)[C@H](CO)NC(=O)[C@H](Cc1ccncc1)NC(=O)[C@H](CC(=O)O)NC(=O)[C@H](CO)NC(=O)[C@@H](NC(=O)[C@H](Cc1ccccc1)NC(=O)[C@@H](NC(=O)CNC(=O)[C@H](CCC(N)=O)NC(=O)[C@H](CO)NC(=O)[C@@H](N)Cc1c[nH]cn1)[C@@H](C)O)[C@@H](C)O)C(C)C)C(=O)N[C@@H](CC(N)=O)C(=O)N[C@H](C(=O)O)[C@@H](C)O [Compound 8, HSQGTFTSDUSKULDZRRAQDFVQWLMNT] | > 10000 | 0.0309 | 66 | – | –
CSCC[C@H](NC(=O)[C@H](CC(C)C)NC(=O)[C@H](Cc1c[nH]c2ccccc12)NC(=O)[C@H](CCC(N)=O)NC(=O)[C@@H](NC(=O)[C@H](Cc1ccccc1)NC(=O)[C@H](CC(=O)O)NC(=O)[C@H](CCC(N)=O)NC(=O)[C@H](C)NC(=O)[C@H](CCCNC(=N)N)NC(=O)[C@H](CCCNC(=N)N)NC(=O)C(C)(C)NC(=O)[C@H](CC(=O)O)NC(=O)[C@H](CC(C)C)NC(=O)[C@H](Cc1ccncc1)NC(=O)[C@H](CCCCN)NC(=O)[C@H](CO)NC(=O)[C@H](Cc1ccncc1)NC(=O)[C@H](CC(=O)O)NC(=O)[C@H](CO)NC(=O)[C@@H](NC(=O)[C@H](Cc1ccncc1)NC(=O)[C@@H](NC(=O)CNC(=O)[C@H](CCC(N)=O)NC(=O)[C@H](CO)NC(=O)[C@@H](N)Cc1c[nH]cn1)[C@@H](C)O)[C@@H](C)O)C(C)C)C(=O)N[C@@H](CC(N)=O)C(=O)N[C@H](C(=O)O)[C@@H](C)O [Compound 10, HSQGTUTSDUSKULDZRRAQDFVQWLMNT] | > 10000 | 0.0843 | 24 | – | –
CSCC[C@H](NC(=O)[C@H](CC(C)C)NC(=O)[C@H](Cc1c[nH]c2ccccc12)NC(=O)[C@H](CCC(N)=O)NC(=O)[C@@H](NC(=O)[C@H](Cc1cccnc1)NC(=O)[C@H](CC(=O)O)NC(=O)[C@H](CCC(N)=O)NC(=O)[C@H](C)NC(=O)[C@H](CCCNC(=N)N)NC(=O)[C@H](CCCNC(=N)N)NC(=O)C(C)(C)NC(=O)[C@H](CC(=O)O)NC(=O)[C@H](CC(C)C)NC(=O)[C@H](Cc1cccnc1)NC(=O)[C@H](CCCCN)NC(=O)[C@H](CO)NC(=O)[C@H](Cc1cccnc1)NC(=O)[C@H](CC(=O)O)NC(=O)[C@H](CO)NC(=O)[C@@H](NC(=O)[C@H](Cc1cccnc1)NC(=O)[C@@H](NC(=O)CNC(=O)[C@H](CCC(N)=O)NC(=O)[C@H](CO)NC(=O)[C@@H](N)Cc1cnc[nH]1)[C@@H](C)O)[C@@H](C)O)C(C)C)C(=O)N[C@@H](CC(N)=O)C(=O)N[C@H](C(=O)O)[C@@H](C)O [Compound 11, HSQGTXTSDXSKXLDZRRAQDXVQWLMNT] (H-HSQGT[3Pal]TSD[3Pal]SK[3Pal]LD[Aib]RRAQD[3Pal]VQWLMNT-OH) | > 10000 | – | – | – | –
CSCC[C@H](NC(=O)[C@H](CC(C)C)NC(=O)[C@H](Cc1c[nH]c2ccccc12)NC(=O)[C@H](CCC(N)=O)NC(=O)[C@@H](NC(=O)[C@H](Cc1cccnc1)NC(=O)[C@H](CC(=O)O)NC(=O)[C@H](CCC(N)=O)NC(=O)[C@H](C)NC(=O)[C@H](CCCNC(=N)N)NC(=O)[C@H](CCCNC(=N)N)NC(=O)C(C)(C)NC(=O)[C@H](CC(=O)O)NC(=O)[C@H](CC(C)C)NC(=O)[C@H](Cc1cccnc1)NC(=O)[C@H](CCCCN)NC(=O)[C@H](CO)NC(=O)[C@H](Cc1cccnc1)NC(=O)[C@H](CC(=O)O)NC(=O)[C@H](CO)NC(=O)[C@@H](NC(=O)[C@H](Cc1cccnc1)NC(=O)[C@@H](NC(=O)CNC(=O)[C@H](CCC(N)=O)NC(=O)[C@H](CO)NC(=O)[C@@H](N)Cc1c[nH]cn1)[C@@H](C)O)[C@@H](C)O)C(C)C)C(=O)N[C@@H](CC(N)=O)C(=O)N[C@H](C(=O)O)[C@@H](C)O [Compound 11, HSQGTXTSDXSKXLDZRRAQDXVQWLMNT] (H-HSQGT[3Pal]TSD[3Pal]SK[3Pal]LD[Aib]RRAQD[3Pal]VQWLMNT-OH; N-terminus and C-terminus assumed) | – | 2.33 | 1 | – | lower potency
